Tests used:
[1] = tested on: human epidermoid squamous cancer cell A431; settings: from WO 2007/082434; in words; cited from earlier work
[2] = tested on: human breast cancer cell BT-474; settings: from WO 2007/082434; in words; cited from earlier work
[3] = tested on: human epidermoid squamous cancer cell A431; settings: from WO 2007/082434; in words; cited from earlier work; remark: listed apart in the source
Erb-B2 kinase = Erb-B2 kinase (Homo sapiens, UniProt P04626); settings: in vitro; from WO 2007/082434; in words; cited from earlier work
[4] = Thermal stability test (storage at 60° C.); assay type: physicochemical; settings: p-Toluenesulfonate; for thermal stability: 60° C., one month, in words; for Purity (%): stored at 60° C.
Description: The purity of Form A was detected at 0, 10 and 30 days, which was based to deduce the thermal stability of Form A. The thermal stability of Form B and Form C were also deduced by this method.

[5] = Light stability test (illumination 4500 lx±500 lx); assay type: physicochemical; settings: p-Toluenesulfonate; for light stability: 4500 lx±500 lx, one month, in words; for Purity (%): illumination 4500 lx±500 lx
Description: The purity of Form A was detected at 0, 10 and 30 days, which was based to deduce to the light stability of Form A. The light stability of Form B and Form C were also deduced by this method.

[6] = Hygroscopicity test (high moisture environment of 92.5%); assay type: physicochemical; settings: p-Toluenesulfonate; for stability under the environment of high moisture: 92.5% moisture, one month, in words; for Purity (%): high moisture environment of 92.5%
Description: The purity of Form A was detected at 0, 10 and 30 days, which was based to deduce the hygroscopicity of Form A. The hygroscopicities of Form B and Form C were also deduced by this method.

[7] = tested on: human epidermatoid squamous cancer A431; experiment: Tumor-inhibitory effect on A431 transplanted to nude mouse; assay type: in vivo, BALB/cA nude mouse; settings: for Weight of animals (g) (without tumor) / Tumor inhibition rate % / Weight of tumors (g) x ± SD: 13 days; for Tumor inhibition rate %: by tumor weight; for Weight of tumors (g) x ± SD: killed 23 days after inoculation
Description: A well-developed solid tumor A431 was selected and cut into several uniform bits of a size of 2-3 mm under sterile conditions, with one bit being inoculated subcutaneously to the right armpit of each of the BALB/cA nude mice using trocar. 7 days after inoculation, the mice were grouped randomly and were intragastrically administrated through mouth for 13 days continuously. The long axis (a) and the short axis (b) of the tumors were measured with a vernier caliper every 4 days. According to the formula V=ab^2/2, the tumor volume (mm^3) could be calculated. The tested animals were neck-off killed 23 days after the inoculation, and anatomized to obtain the tumors. The tumors were weighed, and the tumor inhibition rate was calculated.

[8] = tested on: human ovarian cancer SKOV-3; experiment: Tumor-inhibitory effect on SKOV-3 transplanted to nude mouse; assay type: in vivo, BALB/cA nude mouse; settings: for relative tumor proliferation rate T/C: SKOV-3, 3 weeks, p-Toluenesulfonate; for relative tumor proliferation rate T/C / tumor inhibitory effects: 100 mg/kg ig twice a day; for tumor inhibitory effects: summary in words for SKOV-3, Calu-3 and A549 models
Description: A tumor SKOV-3 in vigorous growth period was selected and cut into several uniform bits of a size of about 1.5 mm^3, which was inoculated subcutaneously to the right armpit of the BALB/cA nude mice using trocar under sterile conditions. The diameters of the transplanted tumors of nude mice were measured with a vernier caliper. The animals were grouped randomly when the tumors grew to a size of 80-100 mm^3. The tested animal group were intragastrically administrated through mouth as mentioned above once a day for 3 weeks continuously. The positive control drug MMC (Mitomycin) was intravenously administered once on the first day with a dose of 5 mg/kg. The negative control group were administered with 0.5% CMC-Na (Carboxymethyl Cellulose Sodium) with a dose of 0.2 mL/per mouse. The long axis (a) and the short axis (b) of the tumors were measured twice every week and the nude mice were weighed at the same time. According to the formula V=ab^2/2, the tumor volume (mm^3) could be calculated, based on which the relative tumor volume (RTV) was calculated (Calculation Formula: RTV=Vt/V0, wherein V0 represents the tumor volume measured at the grouping time of administration, and Vt represents the tumor volume measured each time). The relative tumor proliferation rate T/C (%) was chosen as the index to evaluate the anti-tumor activity, which can be calculated according to the following formula: T/C (%)=(TRTV/CRTV)×100
TRTV: RTV of the treated group; CRTV: RTV of the negative control group
V0 represents the tumor volume before the administration, and V21 represents the tumor volume after 3 weeks of continuous administration.
(§1) According to the experimental method mentioned above, the tumor-bearing nude mice, into which the human ovarian cancer SKOV-3, the human lung cancer Calu-3, and the human lung cancer A549 were transplanted respectively, were intragastrically administrated with Form B (100 mg/kg) of the present invention through mouth twice a day for 3 weeks continuously.
as §1, with “SKQV-3,” for “SKOV-3,”, “C” for “B”

[9] = Toxicity test of long-term administration; assay type: in vivo; settings: SD rats, ig, 20, 50, 100, 500 or 800 mg/(kg·day), four weeks
Description: 80 healthy SD rats, male and weighed 200˜250 g, were grouped into 16 groups randomly, and were each intragastrically administered with Form A, B or C of the p-toluenesulfonate of the compound of formula (I) or a blank solvent (Five test groups with the dose of 20, 50, 100, 500 or 800 mg/(kg·day) and a solvent control group were set).

[10] = Drug absorption in SD rat, intragastric administration; assay type: in vivo, SD rat (Sprague Dawley rat); settings: ig, 30 mg/kg, plasma, p-Toluenesulfonate
Description: Intragastric administration (ig): 16 healthy SD rats, male, weighed 200˜250 g, and grouped into 4 groups randomly, were each administered intragastrically with a drug:the compound (21.68 mg/kg) prepared according to Example 1, Form A, B or C of p-toluenesulfonate of the compound (30 mg/kg). The blood samples were collected at 0.5, 1.0, 1.5, 2.0, 3.0, 5.0, 7.0, 9.0, 12 and 24 hours after administration, which were then isolated to prepare the plasma. The concentration of the drug in the plasma was determined by means of liquid chromatography/mass spectrometry, and the concentration-time curve was obtained.

human lung cancer Calu-3 = experiment: Tumor-inhibitory effect on Calu-3 transplanted to nude mouse; assay type: in vivo, nude mice; settings: 100 mg/kg ig twice a day, 3 weeks, p-Toluenesulfonate
Description: (§2) The diameters of the transplanted tumors of nude mice were measured with a vernier caliper. The animals were grouped randomly when the tumors grew to a size of 80-100 mm^3. […] The positive control drug MMC (Mitomycin) was intravenously administered once on the first day with a dose of 5 mg/kg. The negative control group were administered with 0.5% CMC-Na (Carboxymethyl Cellulose Sodium) with a dose of 0.2 mL/per mouse. The long axis (a) and the short axis (b) of the tumors were measured twice every week and the nude mice were weighed at the same time. […] RTV=Vt/V0, wherein V0 represents the tumor volume measured at the grouping time of administration, and Vt represents the tumor volume measured each time). The relative tumor proliferation rate T/C (%) was chosen as the index to evaluate the anti-tumor activity, which can be calculated according to the following formula: T/C (%)=(TRTV/CRTV)×100 TRTV: RTV of the treated group; CRTV: RTV of the negative control group The standard for evaluating the effectiveness: […]

human lung cancer A549 = experiment: Tumor-inhibitory effect on A549 transplanted to nude mouse; assay type: in vivo, nude mice; settings: 100 mg/kg ig twice a day, 3 weeks, p-Toluenesulfonate
Description: as §2

Erb-B2 kinase, sequence (P04626 23-1255): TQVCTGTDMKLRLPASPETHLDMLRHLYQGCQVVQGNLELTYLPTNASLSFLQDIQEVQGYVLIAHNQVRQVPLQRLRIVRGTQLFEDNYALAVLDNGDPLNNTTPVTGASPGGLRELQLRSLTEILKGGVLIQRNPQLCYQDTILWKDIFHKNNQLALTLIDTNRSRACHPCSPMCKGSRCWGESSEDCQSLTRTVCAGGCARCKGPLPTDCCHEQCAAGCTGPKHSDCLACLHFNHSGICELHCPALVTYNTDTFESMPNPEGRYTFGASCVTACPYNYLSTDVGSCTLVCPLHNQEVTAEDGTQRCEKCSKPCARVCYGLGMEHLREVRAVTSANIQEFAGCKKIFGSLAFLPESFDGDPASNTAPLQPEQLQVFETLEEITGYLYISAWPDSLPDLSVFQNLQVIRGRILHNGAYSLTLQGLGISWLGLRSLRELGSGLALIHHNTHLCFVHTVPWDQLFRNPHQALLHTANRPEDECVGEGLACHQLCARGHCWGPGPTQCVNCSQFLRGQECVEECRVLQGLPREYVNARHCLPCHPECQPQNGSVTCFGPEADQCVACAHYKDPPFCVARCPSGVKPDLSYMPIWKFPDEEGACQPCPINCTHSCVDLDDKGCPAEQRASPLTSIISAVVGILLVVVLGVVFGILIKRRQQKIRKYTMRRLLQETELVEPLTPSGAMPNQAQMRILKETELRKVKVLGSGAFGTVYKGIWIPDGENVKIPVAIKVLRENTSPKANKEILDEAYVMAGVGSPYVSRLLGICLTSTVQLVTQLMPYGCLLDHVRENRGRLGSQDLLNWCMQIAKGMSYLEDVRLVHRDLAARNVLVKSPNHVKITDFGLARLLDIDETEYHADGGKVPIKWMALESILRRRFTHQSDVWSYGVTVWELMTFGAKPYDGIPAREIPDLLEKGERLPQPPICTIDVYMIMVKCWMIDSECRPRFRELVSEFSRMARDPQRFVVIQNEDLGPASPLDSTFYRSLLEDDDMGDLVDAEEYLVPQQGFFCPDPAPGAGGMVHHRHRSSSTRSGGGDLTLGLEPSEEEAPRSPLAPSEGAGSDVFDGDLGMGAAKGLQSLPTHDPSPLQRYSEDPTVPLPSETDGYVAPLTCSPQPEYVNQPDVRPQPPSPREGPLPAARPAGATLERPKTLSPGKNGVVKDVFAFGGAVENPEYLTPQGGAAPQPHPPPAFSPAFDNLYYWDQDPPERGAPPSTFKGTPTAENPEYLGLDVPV

Structure (SMILES) | thermal stability [4] | Purity (%) ([4]; detect time day 0) | Purity (%) ([4]; detect time day 10) | Purity (%) ([4]; detect time day 30) | light stability [5] | Purity (%) ([5]; detect time 0) | Purity (%) ([5]; detect time 10) | Purity (%) ([5]; detect time 30) | stability under the environment of high moisture [6] | Purity (%) ([6]; detect time 0) | Purity (%) ([6]; detect time 10) | Purity (%) ([6]; detect time 30) | food intake [9] | physical signs, appearance, behaviors, activities or shape of dejecta [9] | weight and weight increase of the rats [9] | relative tumor proliferation rate T/C [8] | tumor inhibitory effects [8] | relative tumor proliferation rate T/C (human lung cancer Calu-3) | relative tumor proliferation rate T/C (human lung cancer A549) | further results
C=CC(=O)Nc1ccc2ncnc(Nc3ccc(OCc4cccc(F)c4)c(Cl)c3)c2c1 [Compound of formula (I), N-{4-[3-chloro-4-(3-fluoro-benzyloxy)phenylamino]-quinazolin-6-yl}-acrylamide] |  |  |  |  |  |  |  |  |  |  |  |  |  |  |  |  |  |  |  | inhibiting the growth of A431 cells [1]: relatively good effect; inhibiting the growth of BT-474 cells [2]: relatively good effect; tumor-inhibiting effect on A431 implanted into a nude mouse [3]: significant tumor-inhibiting effect; inhibitory activity against Erb-B2 kinase (Erb-B2 kinase): excellent inhibitory activity
C=CC(=O)Nc1ccc2ncnc(Nc3ccc(OCc4cccc(F)c4)c(Cl)c3)c2c1.Cc1ccc(S(=O)(=O)O)cc1 [Form A, N-{4-[3-chloro-4-(3-fluoro-benzyloxy)phenylamino]-quinazolin-6-yl}-acrylamide p-Toluenesulfonate] | excellent | 98.64% | 98.64% | 98.64% | good | 98.64% | 98.16% | 97.24% | very stable | 98.64% | 98.62% | 98.62% | normal | no abnormality | basically similar to the solvent control group |  |  |  |  | Weight of animals (g) (without tumor) ([7]; 25 mg/kg ig, A431 nude mouse): 21.58 ± 2.18 g; Tumor inhibition rate % ([7]; 25 mg/kg ig): 29.99%; Weight of tumors (g) x ± SD ([7]; 25 mg/kg ig): 0.79 ± 0.20 g; Weight of animals (g) (without tumor) ([7]; 50 mg/kg ig, A431 nude mouse): 22.87 ± 3.96 g; Tumor inhibition rate % ([7]; 50 mg/kg ig): 38.67%; Weight of tumors (g) x ± SD ([7]; 50 mg/kg ig): 0.69 ± 0.17 g; Weight of animals (g) (without tumor) ([7]; 100 mg/kg ig, A431 nude mouse): 22.13 ± 1.83 g; Tumor inhibition rate % ([7]; 100 mg/kg ig): 43.63%; Weight of tumors (g) x ± SD ([7]; 100 mg/kg ig): 0.64 ± 0.23 g; inhibitory effect on the tumor ([7]; A431 nude mouse, ig, in words): significant inhibitory effect; tumor inhibitory effect ([8]; SKOV-3 nude mouse, ig once a day, in words): significant tumor inhibitory effect
C=CC(=O)Nc1ccc2ncnc(Nc3ccc(OCc4cccc(F)c4)c(Cl)c3)c2c1.Cc1ccc(S(=O)(=O)O)cc1 [Form B, N-{4-[3-chloro-4-(3-fluoro-benzyloxy)phenylamino]-quinazolin-6-yl}-acrylamide p-Toluenesulfonate] | excellent | 99.26% | 99.21% | 99.11% | excellent | 99.26% | 99.26% | 99.24% | very stable | 99.26% | 99.25% | 99.24% | normal | no abnormality | basically similar to the solvent control group | 28.5% | significant tumor inhibitory effects | 35.1% | 56.3% | AUC0-t [10]: 978 ng·h/mL
C=CC(=O)Nc1ccc2ncnc(Nc3ccc(OCc4cccc(F)c4)c(Cl)c3)c2c1.Cc1ccc(S(=O)(=O)O)cc1 [Form C, N-{4-[3-chloro-4-(3-fluoro-benzyloxy)phenylamino]-quinazolin-6-yl}-acrylamide p-Toluenesulfonate] | good | 99.03% | 97.08% | 97.55% | good | 99.03% | 98.54% | 98.42% | comparatively stable | 99.03% | 98.27% | 98.08% | normal | no abnormality | basically similar to the solvent control group | 23.2% | significant tumor inhibitory effects | 39.4% | 58.7% | 

— patent publication US9102629B2, “Polymorphic forms of 4-phenylamine quinazoline derivative, the preparation method and uses thereof” (priority 2008, dated 2015)
